Measured values taken from patent publication US20240002391A1, “4-ALKOXYPYRROLO[2,1-F][1,2,4]TRIAZINES AND PREPARATION AND USES THEREOF” (BioSplice Therapeutics, Inc., priority 2022, published 2024).

biological target: recombinant DYRK1A kinase (Homo sapiens (Human), UniProt Q13627); assay: DYRK1A kinase assay (Ser/Thr 18 peptide Z-lyte FRET); assay type: biochemical; conditions: DYRK1A kinase activity, Z-lyte Ser/Thr 18 peptide, 15 μM ATP; method text calls the value IC50; read-out: EC50 (the source's name)
In short: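 IC50 from non-linear fits of percent phosphorylation, derived from coumarin/fluorescein emission ratio after 1 h protease development. Kinase reaction: 1 h room temperature, 15 μM ATP, 4 μM Ser/Thr peptide 18, 0.25 μg/mL recombinant DYRK1A, duplicate 11-point 1:3 dilutions from 10 μM.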

| Structure (SMILES) | IC50 |
| --- | --- |
| COc1nc(N[C@@H]2CCN(C3COC3)CC2(F)F)nn2ccc(-c3ccc4nnn(CCF)c4c3)c12 [Compound 670, (R)—N-(3,3-Difluoro-1-(oxetan-3-yl)piperidin-4-yl)-5-(1-(2-fluoroethyl)-1H-benzo[d][1,2,3]triazol-6-yl)-4-methoxypyrrolo[2,1-f][1,2,4]triazin-2-amine] | 0.8 nM |
| COc1nc(NC2CCC(=O)N(C)C2)nn2ccc(-c3ccc4nnn(/C=C/F)c4c3)c12 (stereo not drawn) [Compound 673, (E)-5-((5-(1-(2-Fluorovinyl)-1H-benzo[d][1,2,3]triazol-6-yl)-4-methoxypyrrolo[2,1-f][1,2,4]triazin-2-yl)amino)-1-methylpiperidin-2-one] | 5.3 nM |
| COc1nc(N[C@H]2CCN(C(C)=O)C[C@H]2F)nn2ccc(-c3ccc4nnn(C(C)C)c4c3)c12 [Compound 686, 1-((3R,4S)-3-Fluoro-4-((5-(1-isopropyl-1H-benzo[d][1,2,3]triazol-6-yl)-4-methoxypyrrolo[2,1-f][1,2,4]triazin-2-yl)amino)piperidin-1-yl)ethan-1-one] | 3.4 nM |
| COc1nc(N[C@H]2CCN(C3COC3)C[C@H]2F)nn2ccc(-c3ccc4nnn(C(C)C)c4c3)c12 [Compound 688, N-((3R,4S)-3-fluoro-1-(oxetan-3-yl)piperidin-4-yl)-5-(1-isopropyl-1H-benzo[d][1,2,3]triazol-6-yl)-4-methoxypyrrolo[2,1-f][1,2,4]triazin-2-amine] | 2.3 nM |
| COc1nc(N[C@H]2CCN(C3(C#N)COC3)C[C@H]2F)nn2ccc(-c3ccc4nnn(C(C)C)c4c3)c12 [Compound 690, 3-((3R,4S)-3-fluoro-4-((5-(1-isopropyl-1H-benzo[d][1,2,3]triazol-6-yl)-4-methoxypyrrolo[2,1-f][1,2,4]triazin-2-yl)amino)piperidin-1-yl)oxetane-3-carbonitrile] | 7.8 nM |
| COc1nc(N[C@@H]2CCN(C(C)=O)CC2(F)F)nn2ccc(-c3ccc4nnn(C(C)C)c4c3)c12 [Compound 691, (R)-1-(3,3-Difluoro-4-((5-(1-isopropyl-1H-benzo[d][1,2,3]triazol-6-yl)-4-methoxypyrrolo[2,1-f][1,2,4]triazin-2-yl)amino)piperidin-1-yl)ethan-1-one] | 1.4 nM |
| COc1nc(NCC(C)(C)C#N)nn2ccc(-c3ccc4nnn(CC(F)F)c4c3)c12 [Compound 695, 3-((5-(1-(2,2-Difluoroethyl)-1H-benzo[d][1,2,3]triazol-6-yl)-4-methoxypyrrolo[2,1-f][1,2,4]triazin-2-yl)amino)-2,2-dimethylpropanenitrile] | 1.3 nM |
| COc1nc(NCC(C)(C)O)nn2ccc(-c3ccc4nnn(CC(F)F)c4c3)c12 [Compound 696, 1-((5-(1-(2,2-Difluoroethyl)-1H-benzo[d][1,2,3]triazol-6-yl)-4-methoxypyrrolo[2,1-f][1,2,4]triazin-2-yl)amino)-2-methylpropan-2-ol] | 1.3 nM |
| COc1nc(N[C@H]2C[C@@H](OCCO)C2)nn2ccc(-c3ccc4nnn(CC(F)F)c4c3)c12 [Compound 699, 2-(cis-3-((5-(1-(2,2-Difluoroethyl)-1H-benzo[d][1,2,3]triazol-6-yl)-4-methoxypyrrolo[2,1-f][1,2,4]triazin-2-yl)amino)cyclobutoxy)ethan-1-ol] | 1.4 nM |
| COc1nc(N[C@@H]2CN(C(C)=O)C[C@@H]2F)nn2ccc(-c3ccc4nnn(CC(F)F)c4c3)c12 [Compound 734, 1-((3R,4S)-3-((5-(1-(2,2-Difluoroethyl)-1H-benzo[d][1,2,3]triazol-6-yl)-4-methoxypyrrolo[2,1-f][1,2,4]triazin-2-yl)amino)-4-fluoropyrrolidin-1-yl)ethan-1-one] | 0.8 nM |
| COc1nc(N[C@@H]2CN(C3COC3)C[C@@H]2F)nn2ccc(-c3ccc4nnn(CC(F)F)c4c3)c12 [Compound 739, 5-(1-(2,2-Difluoroethyl)-1H-benzo[d][1,2,3]triazol-6-yl)-N-((3R,4S)-4-fluoro-1-(oxetan-3-yl)pyrrolidin-3-yl)-4-methoxypyrrolo[2,1-f][1,2,4]triazin-2-amine] | 4.6 nM |
| COc1nc(N[C@@H]2CN(C3(C#N)COC3)C[C@@H]2F)nn2ccc(-c3ccc4nnn(CC(F)F)c4c3)c12 [Compound 741, 3-((3R,4S)-3-((5-(1-(2,2-Difluoroethyl)-1H-benzo[d][1,2,3]triazol-6-yl)-4-methoxypyrrolo[2,1-f][1,2,4]triazin-2-yl)amino)-4-fluoropyrrolidin-1-yl)oxetane-3-carbonitrile] | 1.2 nM |

Next, values leading:

| IC50 | Structure (SMILES) |
| --- | --- |
| 5.9 nM | COc1nc(N[C@H]2CC[C@](C)(O)CC2)nn2ccc(-c3ccc4nnn(/C=C/F)c4c3)c12 [Compound 672, (1r,4r)-4-((5-(1-((E)-2-fluorovinyl)-1H-benzo[d][1,2,3]triazol-6-yl)-4-methoxypyrrolo[2,1-f][1,2,4]triazin-2-yl)amino)-1-methylcyclohexan-1-ol] |
| 1.9 nM | COc1nc(N[C@H]2CC[C@](C)(O)CC2)nn2ccc(-c3ccc4nnn(C(C)C)c4c3)c12 [Compound 681, (1r,4r)-4-((5-(1-Isopropyl-1H-benzo[d][1,2,3]triazol-6-yl)-4-methoxypyrrolo[2,1-f][1,2,4]triazin-2-yl)amino)-1-methylcyclohexan-1-ol] |
| 1.2 nM | COc1nc(N[C@H]2C[C@@](C)(NC(C)=O)C2)nn2ccc(-c3ccc4nnn(CC(F)F)c4c3)c12 [Compound 702, N-((1s,3s)-3-((5-(1-(2,2-Difluoroethyl)-1H-benzo[d][1,2,3]triazol-6-yl)-4-methoxypyrrolo[2,1-f][1,2,4]triazin-2-yl)amino)-1-methylcyclobutyl)acetamide] |
| 0.9 nM | COc1nc(N[C@H]2C[C@@](C)(O)C2)nn2ccc(-c3ccc4nnn(CC(F)F)c4c3)c12 [Compound 710, (1s,3s)-3-((5-(1-(2,2-Difluoroethyl)-1H-benzo[d][1,2,3]triazol-6-yl)-4-methoxypyrrolo[2,1-f][1,2,4]triazin-2-yl)amino)-1-methylcyclobutan-1-ol] |
| 0.5 nM | COc1nc(N[C@H]2C[C@](C)(O)C2)nn2ccc(-c3ccc4nnn(CC(F)F)c4c3)c12 [Compound 711, (1r,3r)-3-((5-(1-(2,2-Difluoroethyl)-1H-benzo[d][1,2,3]triazol-6-yl)-4-methoxypyrrolo[2,1-f][1,2,4]triazin-2-yl)amino)-1-methylcyclobutan-1-ol] |
| 2.3 nM | COc1nc(N[C@H]2CC[C@@H](NC(C)=O)CC2)nn2ccc(-c3ccc4nnn(CC(F)F)c4c3)c12 [Compound 717, N-(cis-4-((5-(1-(2,2-Difluoroethyl)-1H-benzo[d][1,2,3]triazol-6-yl)-4-methoxypyrrolo[2,1-f][1,2,4]triazin-2-yl)amino)cyclohexyl)acetamide] |
| 0.5 nM | COc1nc(N[C@H]2CC[C@@H](O)CC2)nn2ccc(-c3ccc4nnn(CC(F)F)c4c3)c12 [Compound 718, cis-4-((5-(1-(2,2-Difluoroethyl)-1H-benzo[d][1,2,3]triazol-6-yl)-4-methoxypyrrolo[2,1-f][1,2,4]triazin-2-yl)amino)cyclohexan-1-ol] |
| 0.3 nM | COc1nc(N[C@H]2CC[C@H](O)CC2)nn2ccc(-c3ccc4nnn(CC(F)F)c4c3)c12 [Compound 719, trans-4-((5-(1-(2,2-Difluoroethyl)-1H-benzo[d][1,2,3]triazol-6-yl)-4-methoxypyrrolo[2,1-f][1,2,4]triazin-2-yl)amino)cyclohexan-1-ol] |
| 5.7 nM | COc1nc(NC2CCC(C)(C#N)CC2)nn2ccc(-c3ccc4nnn(CC(F)F)c4c3)c12 (stereo not drawn) [Compound 721, 4-((5-(1-(2,2-Difluoroethyl)-1H-benzo[d][1,2,3]triazol-6-yl)-4-methoxypyrrolo[2,1-f][1,2,4]triazin-2-yl)amino)-1-methylcyclohexane-1-carbonitrile] |
| 1.1 nM | COc1nc(N[C@H]2CC[C@@](C)(O)CC2)nn2ccc(-c3ccc4nnn(CC(F)F)c4c3)c12 [Compound 724, (1s,4s)-4-((5-(1-(2,2-Difluoroethyl)-1H-benzo[d][1,2,3]triazol-6-yl)-4-methoxypyrrolo[2,1-f][1,2,4]triazin-2-yl)amino)-1-methylcyclohexan-1-ol] |
| 0.6 nM | COc1nc(N[C@H]2CC[C@](C)(O)CC2)nn2ccc(-c3ccc4nnn(CC(F)F)c4c3)c12 [Compound 725, (1r,4r)-4-((5-(1-(2,2-difluoroethyl)-1H-benzo[d][1,2,3]triazol-6-yl)-4-methoxypyrrolo[2,1-f][1,2,4]triazin-2-yl)amino)-1-methylcyclohexan-1-ol] |
| 1.8 nM | CC[C@]1(O)CC[C@@H](Nc2nc(OC)c3c(-c4ccc5nnn(CC(F)F)c5c4)ccn3n2)CC1 [Compound 726, (1s,4s)-4-((5-(1-(2,2-Difluoroethyl)-1H-benzo[d][1,2,3]triazol-6-yl)-4-methoxypyrrolo[2,1-f][1,2,4]triazin-2-yl)amino)-1-ethylcyclohexan-1-ol] |
| 2.8 nM | CC[C@]1(O)CC[C@H](Nc2nc(OC)c3c(-c4ccc5nnn(CC(F)F)c5c4)ccn3n2)CC1 [Compound 727, (1r,4r)-4-((5-(1-(2,2-Difluoroethyl)-1H-benzo[d][1,2,3]triazol-6-yl)-4-methoxypyrrolo[2,1-f][1,2,4]triazin-2-yl)amino)-1-ethylcyclohexan-1-ol] |
| 4.6 nM | COc1nc(N[C@@H]2CN(C)C[C@@H]2F)nn2ccc(-c3ccc4nnn(CC(F)F)c4c3)c12 [Compound 730, 5-(1-(2,2-Difluoroethyl)-1H-benzo[d][1,2,3]triazol-6-yl)-N-((3R,4S)-4-fluoro-1-methylpyrrolidin-3-yl)-4-methoxypyrrolo[2,1-f][1,2,4]triazin-2-amine] |
| 1 nM | CCN1C[C@H](F)[C@H](Nc2nc(OC)c3c(-c4ccc5nnn(CC(F)F)c5c4)ccn3n2)C1 [Compound 732, 5-(1-(2,2-Difluoroethyl)-1H-benzo[d][1,2,3]triazol-6-yl)-N-((3R,4S)-1-ethyl-4-fluoropyrrolidin-3-yl)-4-methoxypyrrolo[2,1-f][1,2,4]triazin-2-amine] |
